Laboratory results from PubChem BioAssay AID2060497 (Molecular Pharmacology Branch, DTP, NCI, 2025).

Tested on: 317291-083-R-J1-PDC complex spheroids, viability
Assay: Anticancer human tumor 317291-083-R-J1-PDC patient-derived soft tissue sarcoma cell line growth inhibition [GQUAD]
Settings: for IC50: curve of first compound; for viability, T/C: stronger effect = lower value
How it was run: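 Multi-cell-type spheroids of tumor cells with HUVEC and mesenchymal stem cells, treated with drug combinations. Concentrations descend in half-log steps from near clinical Cmax, or from 10 microM where Cmax is unknown; viability read-out.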

[1] = second compound 0.0316 µM, first compound 0.0316 µM
[2] = second compound 0.0316 µM, first compound 0.1 µM
[3] = second compound 0.0316 µM, first compound 0.316 µM
[4] = second compound 0.0316 µM, first compound 1 µM
[5] = second compound 0.0316 µM, first compound 3.16 µM
[6] = second compound 0.0316 µM, first compound 10 µM
[7] = second compound 0.1 µM, first compound 0.0316 µM
[8] = second compound 0.1 µM, first compound 0.1 µM
[9] = second compound 0.1 µM, first compound 0.316 µM
[10] = second compound 0.1 µM, first compound 1 µM
[11] = second compound 0.1 µM, first compound 3.16 µM
[12] = second compound 0.1 µM, first compound 10 µM
[13] = second compound 0.316 µM, first compound 0.0316 µM
[14] = second compound 0.316 µM, first compound 0.1 µM
[15] = second compound 0.316 µM, first compound 0.316 µM
[16] = second compound 0.316 µM, first compound 1 µM
[17] = second compound 0.316 µM, first compound 3.16 µM
[18] = second compound 0.316 µM, first compound 10 µM
[19] = second compound 1 µM, first compound 0.0316 µM
[20] = second compound 1 µM, first compound 0.1 µM
[21] = second compound 1 µM, first compound 0.316 µM
[22] = second compound 1 µM, first compound 1 µM
[23] = second compound 1 µM, first compound 3.16 µM
[24] = second compound 1 µM, first compound 10 µM
[25] = second compound 3.16 µM, first compound 0.0316 µM
[26] = second compound 3.16 µM, first compound 0.1 µM
[27] = second compound 3.16 µM, first compound 0.316 µM
[28] = second compound 3.16 µM, first compound 1 µM
[29] = second compound 3.16 µM, first compound 3.16 µM
[30] = second compound 3.16 µM, first compound 10 µM
[31] = second compound 10 µM, first compound 0.0316 µM
[32] = second compound 10 µM, first compound 0.1 µM
[33] = second compound 10 µM, first compound 0.316 µM
[34] = second compound 10 µM, first compound 1 µM
[35] = second compound 10 µM, first compound 3.16 µM
[36] = second compound 10 µM, first compound 10 µM
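Further: spheroids exposed to compounds for one week before readout.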
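Wherever viability, T/C is given: percent viability relative to DMSO vehicle wells taken as 100%.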

What does the source list for `CCCS(=O)(=O)Nc1ccc(F)c(C(=O)c2c[nH]c3ncc(-c4ccc(Cl)cc4)cc23)c1F` + CN(C)c1ccc(Nc2c3ccc(NC(=O)CCN4CCCC4)cc3nc3cc(NC(=O)CCN4CCCC4)ccc23)cc1?
IC50 (second compound 0.0316 µM): 4.16 µM; IC50 (second compound 0.1 µM): 3.84 µM; IC50 (second compound 0.316 µM): 0.684 µM; IC50 (second compound 1 µM): < 0.0316 µM; IC50 (second compound 3.16 µM): < 0.0316 µM; IC50 (second compound 10 µM): < 0.0316 µM; viability, T/C [1]: 121%; viability, T/C [2]: 107%; viability, T/C [3]: 108%; viability, T/C [4]: 102%; viability, T/C [5]: 60.4%; viability, T/C [6]: 15.4%; viability, T/C [7]: 106%; viability, T/C [8]: 99.9%; viability, T/C [9]: 82.9%; viability, T/C [10]: 87.1%; viability, T/C [11]: 56.9%; viability, T/C [12]: 13.6%; viability, T/C [13]: 86.6%; viability, T/C [14]: 72.3%; viability, T/C [15]: 56.3%; viability, T/C [16]: 49.2%; viability, T/C [17]: 30.6%; viability, T/C [18]: 14.1%; viability, T/C [19]: 45.6%; viability, T/C [20]: 25.1%; viability, T/C [21]: 38.2%; viability, T/C [22]: 30.3%; viability, T/C [23]: 28.7%; viability, T/C [24]: 6.94%; viability, T/C [25]: 5.58%; viability, T/C [26]: 0.71%; viability, T/C [27]: 9.21%; viability, T/C [28]: 1.39%; viability, T/C [29]: 4.27%; viability, T/C [30]: 1.07%; viability, T/C [31]: 0.47%; viability, T/C [32]: 0.37%; viability, T/C [33]: 0.54%; viability, T/C [34]: 2.11%; viability, T/C [35]: 0.46%; viability, T/C [36]: 0.51%

`CC1COCCN1c1cc(-c2ccnn2C)c2ccnc(-c3ccn[nH]3)c2n1` (stereo unspecified) + CN(C)c1ccc(Nc2c3ccc(NC(=O)CCN4CCCC4)cc3nc3cc(NC(=O)CCN4CCCC4)ccc23)cc1 was tested. Which IC50 (second compound 0.0316 µM) did it give?
Its IC50 is 0.0647 µM.

What about the IC50 (second compound 0.1 µM) of the same compound?
The IC50 was 0.0668 µM.

And the IC50 (second compound 0.316 µM)?
The IC50 was 0.0424 µM.

What about the IC50 (second compound 1 µM) of the same compound?
The IC50 was under 0.0316 µM.

And the IC50 (second compound 3.16 µM)?
The IC50 was under 0.0316 µM.

What about the IC50 (second compound 10 µM) of the same compound?
The IC50 was under 0.0316 µM.

And the viability, T/C [1]?
Its viability, T/C is 87.2%.

What about the viability, T/C [2] of the same compound?
Its viability, T/C is 27.4%.

And the viability, T/C [3]?
Its viability, T/C is 17%.

What about the viability, T/C [4] of the same compound?
Its viability, T/C is 13.8%.

And the viability, T/C [5]?
Its viability, T/C is 13.8%.

What about the viability, T/C [6] of the same compound?
The viability, T/C was 14.2%.

And the viability, T/C [7]?
The viability, T/C was 84.5%.

And the viability, T/C [8]?
The viability, T/C was 31.4%.

And the viability, T/C [9]?
The viability, T/C was 14.9%.

And the viability, T/C [10]?
The viability, T/C was 13.7%.

What about the viability, T/C [11] of the same compound?
Its viability, T/C is 12.1%.

And the viability, T/C [12]?
The viability, T/C was 14%.

And the viability, T/C [13]?
Its viability, T/C is 59.1%.

What about the viability, T/C [14] of the same compound?
The viability, T/C was 24.3%.

What about the viability, T/C [15] of the same compound?
Its viability, T/C is 15.2%.

What about the viability, T/C [16] of the same compound?
Its viability, T/C is 11.2%.

And the viability, T/C [17]?
The viability, T/C was 15.5%.

And the viability, T/C [18]?
The viability, T/C was 19.9%.

What about the viability, T/C [19] of the same compound?
Its viability, T/C is 41.1%.

And the viability, T/C [20]?
The viability, T/C was 17%.

What about the viability, T/C [21] of the same compound?
The viability, T/C was 33.6%.

What about the viability, T/C [22] of the same compound?
Its viability, T/C is 10.3%.

And the viability, T/C [23]?
Its viability, T/C is 7.25%.

What about the viability, T/C [24] of the same compound?
The viability, T/C was 6.88%.

And the viability, T/C [25]?
Its viability, T/C is 25.8%.

And the viability, T/C [26]?
The viability, T/C was 7.15%.

What about the viability, T/C [27] of the same compound?
The viability, T/C was 5.62%.

What about the viability, T/C [28] of the same compound?
The viability, T/C was 4.31%.

What about the viability, T/C [29] of the same compound?
Its viability, T/C is 3.37%.

What about the viability, T/C [30] of the same compound?
The viability, T/C was 2.05%.

And the viability, T/C [31]?
Its viability, T/C is 3.62%.

What about the viability, T/C [32] of the same compound?
Its viability, T/C is 5.3%.

And the viability, T/C [33]?
The viability, T/C was 7.04%.

What about the viability, T/C [34] of the same compound?
The viability, T/C was 4%.

And the viability, T/C [35]?
Its viability, T/C is 1.52%.

What about the viability, T/C [36] of the same compound?
Its viability, T/C is 0.66%.

`CCCS(=O)(=O)Nc1ccc(F)c(C(=O)c2c[nH]c3ncc(-c4ccc(Cl)cc4)cc23)c1F` + Cc1cnc(CNC(=O)c2c(=O)c3ccc(N4CCCN(C)CC4)nc3n3c2sc2ccccc23)cn1 was tested. Which IC50 (second compound 0.0316 µM) did it give?
Its IC50 is 4.02 µM.

What about the IC50 (second compound 0.1 µM) of the same compound?
The IC50 was 3.92 µM.

What about the IC50 (second compound 0.316 µM) of the same compound?
The IC50 was 0.179 µM.

What about the IC50 (second compound 1 µM) of the same compound?
Its IC50 is under 0.0316 µM.

And the IC50 (second compound 3.16 µM)?
The IC50 was under 0.0316 µM.

And the IC50 (second compound 10 µM)?
The IC50 was under 0.0316 µM.

And the viability, T/C [1]?
Its viability, T/C is 89.2%.

What about the viability, T/C [2] of the same compound?
Its viability, T/C is 100%.

And the viability, T/C [3]?
The viability, T/C was 99.8%.

What about the viability, T/C [4] of the same compound?
The viability, T/C was 91.3%.

And the viability, T/C [5]?
Its viability, T/C is 60.6%.

What about the viability, T/C [6] of the same compound?
Its viability, T/C is 9.94%.

And the viability, T/C [7]?
Its viability, T/C is 64.3%.

What about the viability, T/C [8] of the same compound?
Its viability, T/C is 56.2%.

And the viability, T/C [9]?
The viability, T/C was 67.1%.

And the viability, T/C [10]?
The viability, T/C was 49.9%.

And the viability, T/C [11]?
The viability, T/C was 59.4%.

What about the viability, T/C [12] of the same compound?
The viability, T/C was 9.77%.

What about the viability, T/C [13] of the same compound?
Its viability, T/C is 43%.

What about the viability, T/C [14] of the same compound?
Its viability, T/C is 68.4%.

And the viability, T/C [15]?
The viability, T/C was 43.6%.

What about the viability, T/C [16] of the same compound?
Its viability, T/C is 38.1%.

And the viability, T/C [17]?
Its viability, T/C is 37.5%.

And the viability, T/C [18]?
Its viability, T/C is 16.5%.

What about the viability, T/C [19] of the same compound?
Its viability, T/C is 55.6%.

What about the viability, T/C [20] of the same compound?
The viability, T/C was 23.6%.

What about the viability, T/C [21] of the same compound?
Its viability, T/C is 43.1%.

And the viability, T/C [22]?
The viability, T/C was 18.8%.

What about the viability, T/C [23] of the same compound?
Its viability, T/C is 19.7%.

And the viability, T/C [24]?
The viability, T/C was 5.79%.

What about the viability, T/C [25] of the same compound?
Its viability, T/C is 10.6%.

And the viability, T/C [26]?
The viability, T/C was 11.7%.

What about the viability, T/C [27] of the same compound?
The viability, T/C was 10.6%.

What about the viability, T/C [28] of the same compound?
Its viability, T/C is 11.8%.

And the viability, T/C [29]?
Its viability, T/C is 21.4%.

What about the viability, T/C [30] of the same compound?
The viability, T/C was 0.18%.

And the viability, T/C [31]?
The viability, T/C was 10.2%.

What about the viability, T/C [32] of the same compound?
The viability, T/C was 6.4%.

What about the viability, T/C [33] of the same compound?
The viability, T/C was 24.3%.

What about the viability, T/C [34] of the same compound?
Its viability, T/C is 8.2%.

And the viability, T/C [35]?
Its viability, T/C is 16.7%.

What about the viability, T/C [36] of the same compound?
Its viability, T/C is 8.36%.
